In ChEMBL document CHEMBL5215011, “Isolation and Structure Elucidation of Compounds from Sesamum alatum and Their Antiproliferative Activity against Multiple Myeloma Cells” (J Nat Prod, 2022):

How the values were obtained:
Assay type in all cases: functional, cell-based
[1] = test system: MM1.S; test: Antiproliferative activity against human MM1.S cells assessed as inhibition of cell proliferation incubated for 72 hrs by XTT assay
[2] = Antiproliferative activity against human MM1.R cells assessed as inhibition of cell proliferation incubated for 72 hrs by XTT assay; details: MM.1R
[3] = test system: RPMI-8226; test: Antiproliferative activity against human RPMI-8226 cells assessed as inhibition of cell proliferation incubated for 72 hrs by XTT assay; details: RPMI-8226, 72 h

Structure (SMILES)	IC50 [1] [µM]	IC50 [2] [µM]	IC50 [3] [µM]
CC(C)=CC[C@@]12O[C@@H]1C(=O)c1c(O)ccc(O)c1C2=O	0.7	0.9	0.6
CC(C)=CC[C@@]12O[C@@H]1C(=O)c1c(O)ccc(O[C@@H]3O[C@H](CO)[C@@H](O)[C@H](O)[C@H]3O)c1C2=O	4.8	3.6	9.5
CC(C)=CCC1=C(Cl)C(=O)c2c(O)ccc(O)c2C1=O	–	–	12.9
CC(C)(O)/C=C\C(O)=C1C(=O)c2c(O)ccc(O)c2C1=O	14.7	6.1	9.6
CC(C)=CC[C@@H]1C(=O)c2c(O)ccc(O)c2[C@@H]1O	–	–	27.5
CC(C)=CC[C@@]12O[C@@H]1C(O)c1c(O)ccc(O)c1C2=O (stereo partly drawn)	–	–	18.6
COC1=CC(=O)C=C(OC)C1=O [2,6-DIMETHOXYQUINONE]	1.1	3	10.8
CC(C)C[C@H](NC(=O)[C@H](Cc1ccccc1)NC(=O)c1cnccn1)B(O)O [BORTEZOMIB]	0.0032	0.0047	0.0056
